Several values for one entry are separate records, joined by “and”; a condition that tells them apart may be missing. Equal entries are not always repeated.
System: Swiss mice, Sarcoma 180 sc, mean tumor weight T/C
Assay: NCI In Vivo Anticancer Drug Screen. Data for tumor model Sarcoma 180 (subcutaneous) in Swiss mice
Conditions: endpoint: mean tumor weight, higher = larger tumour
Method in brief: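 Antitumor activity is assessed in mice with transplantable tumors. Treated (T) and vehicle control (C) groups are compared on survival or tumor size.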

[1] = dose: 125.0 mg/kg/injection, schedule: Q01DX007 (ip), vehicle: carboxymethylcellulose (CMC)
[2] = dose: 31.0 mg/kg/injection, schedule: Q01DX007 (ip), vehicle: carboxymethylcellulose (CMC)
[3] = dose: 62.0 mg/kg/injection, schedule: Q01DX007 (ip), vehicle: carboxymethylcellulose (CMC)

Structure (SMILES): CC(=O)[C@@]1(O)CC[C@H]2[C@@H]3C[C@H](C)C4=CC(=O)C=C[C@]4(C)[C@@]3(F)[C@@H](O)C[C@@]21C
- T/C (dose: 6.9 mg/kg/injection, schedule: Q01DX007 (sc), vehicle: steriod suspending solution): 102 % of control
- T/C (dose: 16.0 mg/kg/injection, schedule: Q01DX007 (sc), vehicle: steriod suspending solution): 76 % of control
- T/C (dose: 17.0 mg/kg/injection, schedule: Q01DX007 (sc), vehicle: steriod suspending solution): 60 % of control
- T/C (dose: 24.0 mg/kg/injection, schedule: Q01DX007 (sc), vehicle: steriod suspending solution): 78 % of control
- T/C (dose: 26.0 mg/kg/injection, schedule: Q01DX007 (sc), vehicle: steriod suspending solution): 19 % of control and 23 % of control
- T/C (dose: 27.5 mg/kg/injection, schedule: Q01DX007 (sc), vehicle: steriod suspending solution): 65 % of control
- T/C (dose: 27.5 mg/kg/injection, schedule: Q#A X014 (sc), vehicle: steriod suspending solution): 33 % of control
- T/C (dose: 36.5 mg/kg/injection, schedule: Q01DX007 (sc), vehicle: steriod suspending solution): 57 % of control
- T/C (dose: 40.0 mg/kg/injection, schedule: Q01DX007 (sc), vehicle: steriod suspending solution): 17 % of control and 23 % of control and 36 % of control
- T/C (dose: 41.5 mg/kg/injection, schedule: Q#A X014 (sc), vehicle: steriod suspending solution): 40 % of control
- T/C (dose: 60.0 mg/kg/injection, schedule: Q01DX007 (sc), vehicle: steriod suspending solution): 29 % of control
- T/C (dose: 62.5 mg/kg/injection, schedule: Q#A X014 (sc), vehicle: steriod suspending solution): 34 % of control and 45 % of control
- T/C (dose: 83.0 mg/kg/injection, schedule: Q01DX007 (sc), vehicle: steriod suspending solution): 38 % of control
- T/C (dose: 85.0 mg/kg/injection, schedule: Q01DX007 (sc), vehicle: steriod suspending solution): 34 % of control
- T/C (dose: 90.0 mg/kg/injection, schedule: Q01DX007 (sc), vehicle: steriod suspending solution): 18 % of control
- T/C (dose: 125.0 mg/kg/injection, schedule: Q01DX007 (sc), vehicle: steriod suspending solution): 17 % of control
- T/C (dose: 135.0 mg/kg/injection, schedule: Q01DX007 (sc), vehicle: steriod suspending solution): 19 % of control
- T/C (dose: 188.0 mg/kg/injection, schedule: Q01DX007 (sc), vehicle: steriod suspending solution): 46 % of control
- T/C (dose: 282.0 mg/kg/injection, schedule: Q01DX007 (sc), vehicle: steriod suspending solution): 25 % of control and 26 % of control
- T/C (dose: 300.0 mg/kg/injection, schedule: Q01DX007 (sc), vehicle: steriod suspending solution): 34 % of control
- T/C (dose: 423.0 mg/kg/injection, schedule: Q01DX007 (sc), vehicle: steriod suspending solution): 20 % of control and 39 % of control
- T/C (dose: 500.0 mg/kg/injection, schedule: Q01DX007 (sc), vehicle: steriod suspending solution): 3 % of control
- T/C (dose: 600.0 mg/kg/injection, schedule: Q01DX007 (sc), vehicle: steriod suspending solution): 30 % of control
- T/C (dose: 630.0 mg/kg/injection, schedule: Q01DX007 (sc), vehicle: steriod suspending solution): 15 % of control
- T/C (dose: 900.0 mg/kg/injection, schedule: Q01DX007 (sc), vehicle: steriod suspending solution): 27 % of control
- T/C (dose: 945.0 mg/kg/injection, schedule: Q01DX007 (sc), vehicle: steriod suspending solution): 22 % of control
- T/C (dose: 1400.0 mg/kg/injection, schedule: Q01DX007 (sc), vehicle: steriod suspending solution): 14 % of control

Structure (SMILES): CSCS(=O)C[C@H](CO)NC(=O)/C=C/c1c(C)[nH]c(=O)[nH]c1=O (stereo partly specified)
- T/C (dose: 0.03 mg/kg/injection, schedule: Q#A X014 (ip), vehicle: saline): 64 % of control
- T/C (dose: 0.06 mg/kg/injection, schedule: Q01DX007 (ip), vehicle: saline): 81 % of control
- T/C (dose: 0.06 mg/kg/injection, schedule: Q01DX007 (sc), vehicle: saline): 107 % of control
- T/C (dose: 0.06 mg/kg/injection, schedule: Q#A X014 (ip), vehicle: saline): 54 % of control
- T/C (dose: 0.12 mg/kg/injection, schedule: Q#A X014 (ip), vehicle: saline): 44 % of control
- T/C (dose: 0.13 mg/kg/injection, schedule: Q01DX007 (ip), vehicle: saline): 50 % of control
- T/C (dose: 0.13 mg/kg/injection, schedule: Q01DX007 (sc), vehicle: saline): 81 % of control
- T/C (dose: 0.19 mg/kg/injection, schedule: Q03DX003 (ip), vehicle: saline): 88 % of control
- T/C (dose: 0.25 mg/kg/injection, schedule: Q01DX007 (ip), vehicle: saline): 39 % of control
- T/C (dose: 0.25 mg/kg/injection, schedule: Q01DX007 (iv), vehicle: saline): 87 % of control
- T/C (dose: 0.25 mg/kg/injection, schedule: Q01DX007 (oral), vehicle: saline): 97 % of control
- T/C (dose: 0.25 mg/kg/injection, schedule: Q01DX007 (sc), vehicle: saline): 78 % of control
- T/C (dose: 0.25 mg/kg/injection, schedule: Q#A X014 (ip), vehicle: saline): 42 % of control
- T/C (dose: 0.38 mg/kg/injection, schedule: Q03DX003 (ip), vehicle: saline): 76 % of control
- T/C (dose: 0.4 mg/kg/injection, schedule: Q#A X014 (ip), vehicle: carboxymethylcellulose (CMC)): 58 % of control
- T/C (dose: 0.5 mg/kg/injection, schedule: Q01DX007 (ip), vehicle: saline): 32 % of control
- T/C (dose: 0.5 mg/kg/injection, schedule: Q01DX007 (iv), vehicle: saline): 86 % of control
- T/C (dose: 0.5 mg/kg/injection, schedule: Q01DX007 (oral), vehicle: saline): 106 % of control
- T/C (dose: 0.5 mg/kg/injection, schedule: Q01DX007 (sc), vehicle: saline): 17 % of control
- T/C (dose: 0.62 mg/kg/injection, schedule: Q#A X014 (ip), vehicle: carboxymethylcellulose (CMC)): 27 % of control
- T/C (dose: 0.75 mg/kg/injection, schedule: Q#A X014 (ip), vehicle: carboxymethylcellulose (CMC)): 20 % of control
- T/C (dose: 1.0 mg/kg/injection, schedule: Q01DX007 (iv), vehicle: saline): 58 % of control
- T/C (dose: 1.0 mg/kg/injection, schedule: Q01DX007 (oral), vehicle: saline): 59 % of control
- T/C (dose: 1.5 mg/kg/injection, schedule: Q03DX003 (ip), vehicle: saline): 89 % of control
- T/C (dose: 2.0 mg/kg/injection, schedule: Q01DX007 (oral), vehicle: saline): 99 % of control
- T/C (dose: 62.5 mg/kg/injection, schedule: Q#A X014 (ip), vehicle: carboxymethylcellulose (CMC)): 79 % of control
- T/C (dose: 125.0 mg/kg/injection, schedule: Q#A X014 (ip), vehicle: carboxymethylcellulose (CMC)): 74 % of control

Structure (SMILES): CN(CCO)/N=N/c1nc[nH]c1C(N)=O
- T/C [1]: 73 % of control
- T/C (dose: 250.0 mg/kg/injection, schedule: Q01DX007 (ip), vehicle: carboxymethylcellulose (CMC)): 78 % of control

Structure (SMILES): CCN(CC)CCOC(=O)c1ccc(N)cc1
- T/C (dose: 75.0 mg/kg/injection, schedule: Q#A X014 (ip), vehicle: saline): 92 % of control

Structure (SMILES): CCn1cnc2c(=S)nc[nH]c21
- T/C (dose: 50.0 mg/kg/injection, schedule: Q01DX007 (ip), vehicle: carboxymethylcellulose (CMC)): 55 % of control
- T/C (dose: 100.0 mg/kg/injection, schedule: Q01DX007 (ip), vehicle: carboxymethylcellulose (CMC)): 25 % of control

Structure (SMILES): O=[N+]([O-])c1ccc(C=Nc2ccc3c(c2)C(Br)c2ccccc2-3)cc1 (stereo unspecified)
- T/C (dose: 55.0 mg/kg/injection, schedule: Q#A X014 (ip), vehicle: saline): 56 % of control
- T/C (dose: 83.0 mg/kg/injection, schedule: Q#A X014 (ip), vehicle: saline): 30 % of control and 37 % of control
- T/C (dose: 110.0 mg/kg/injection, schedule: Q01DX007 (ip), vehicle: saline): 88 % of control
- T/C (dose: 125.0 mg/kg/injection, schedule: Q#A X014 (ip), vehicle: saline): 28 % of control and 37 % of control
- T/C (dose: 166.0 mg/kg/injection, schedule: Q01DX007 (ip), vehicle: saline): 85 % of control
- T/C (dose: 187.5 mg/kg/injection, schedule: Q#A X014 (ip), vehicle: saline): 18 % of control
- T/C (dose: 250.0 mg/kg/injection, schedule: Q01DX007 (ip), vehicle: saline): 94 % of control
- T/C (dose: 375.0 mg/kg/injection, schedule: Q01DX007 (ip), vehicle: saline): 61 % of control

Structure (SMILES): CCCCNc1ncnc2c1cnn2C
- T/C (dose: 4.0 mg/kg/injection, schedule: Q01DX007 (ip), vehicle: carboxymethylcellulose (CMC)): 124 % of control
- T/C (dose: 8.0 mg/kg/injection, schedule: Q01DX007 (ip), vehicle: carboxymethylcellulose (CMC)): 107 % of control and 121 % of control
- T/C [2]: 92 % of control
- T/C (dose: 32.0 mg/kg/injection, schedule: Q01DX007 (ip), vehicle: carboxymethylcellulose (CMC)): 77 % of control
- T/C [3]: 112 % of control

Structure (SMILES): CC(=O)OCC1=CC2OC(=O)C3=COC(OC4OC(CO)C(O)C(O)C4O)C1C32 (stereo unspecified)
- T/C (dose: 220.0 mg/kg/injection, schedule: Q01DX007 (ip), vehicle: carboxymethylcellulose (CMC)): 67 % of control

Structure (SMILES): CN(N=Nc1n[nH]nc1C(N)=O)c1ccccc1
- T/C [2]: 65 % of control
- T/C [3]: 73 % of control
- T/C [1]: 70 % of control
